Like-named read-outs stand apart in the source and are kept apart here.
Key:
hGIPR = target: T1, hGIPR (Homo sapiens, UniProt P48546); assay: Functional cAMP formation (HTRF) in HEK-293 clonal cells expressing hGIPR, 0.1% bovine casein, without or with 1.0% human serum albumin; assay type: cell-based; conditions: for EC50: cAMP, incubated at 37° C., 0.1% bovine casein (no human serum albumin), geometric mean; for Emax: 37° C., 0.1% bovine casein, arithmetic mean
T1 construct: expressed in transfected cells
T1 sequence (P48546 22-466): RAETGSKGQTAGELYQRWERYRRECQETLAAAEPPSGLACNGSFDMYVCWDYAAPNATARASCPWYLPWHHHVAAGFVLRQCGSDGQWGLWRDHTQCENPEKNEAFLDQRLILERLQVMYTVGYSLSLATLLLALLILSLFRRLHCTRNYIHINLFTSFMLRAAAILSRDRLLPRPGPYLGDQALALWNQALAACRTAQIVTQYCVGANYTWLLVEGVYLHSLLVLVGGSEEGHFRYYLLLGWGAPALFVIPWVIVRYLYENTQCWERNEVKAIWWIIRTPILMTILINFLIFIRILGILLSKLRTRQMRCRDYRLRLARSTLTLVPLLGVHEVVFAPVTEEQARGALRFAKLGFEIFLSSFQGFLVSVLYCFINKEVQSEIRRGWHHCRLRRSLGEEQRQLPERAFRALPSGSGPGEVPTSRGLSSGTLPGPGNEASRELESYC
Outline: (§1)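 Readings of the HTRF 665/620 nm ratio, which falls as cAMP rises, were converted to nM cAMP using a standard curve after 30 min peptide exposure at 37° C.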

hGCGR = target: T2, hGCGR (Homo sapiens, UniProt P47871); assay: Functional cAMP formation (HTRF) in HEK-293 clonal cells expressing hGCGR, 0.1% bovine casein, without or with 1.0% human serum albumin; assay type: cell-based; conditions: cAMP, incubated at 37° C., 0.1% bovine casein (no human serum albumin), geometric mean
T2 construct: expressed in transfected cells
T2 sequence (P47871 26-477): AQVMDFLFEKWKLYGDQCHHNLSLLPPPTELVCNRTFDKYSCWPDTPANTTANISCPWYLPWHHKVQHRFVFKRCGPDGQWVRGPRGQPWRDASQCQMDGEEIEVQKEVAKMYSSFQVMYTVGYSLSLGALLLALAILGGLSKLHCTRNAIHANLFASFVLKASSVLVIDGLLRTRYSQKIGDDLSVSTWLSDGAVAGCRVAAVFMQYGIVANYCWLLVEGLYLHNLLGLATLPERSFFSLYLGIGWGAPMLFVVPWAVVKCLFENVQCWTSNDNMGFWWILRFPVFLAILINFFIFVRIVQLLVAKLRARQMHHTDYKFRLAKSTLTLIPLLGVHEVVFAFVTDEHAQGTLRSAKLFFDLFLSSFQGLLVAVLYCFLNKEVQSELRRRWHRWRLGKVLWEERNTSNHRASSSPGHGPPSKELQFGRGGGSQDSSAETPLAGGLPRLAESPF
Outline: as §1

[1] = read-out: hGIPR EC50, nM (SEM, n)
[2] = read-out: hGCGR EC50, nM (SEM, n)
[3] = HEK293, percent of maximal response to GIP(1-42)NH2, read-out: hGIPR Emax, % ± SEM

With `CC[C@H](C)[C@H](NC(=O)[C@H](CC(C)C)NC(=O)[C@](C)(Cc1ccc(O)cc1)NC(=O)[C@@H](CCC(=O)O)NC(=O)[C@@H](NC(=O)[C@H](Cc1ccccc1)NC(=O)[C@H](CCC(=O)O)NC(=O)C(C)(C)NC(=O)[C@H](CCC(N)=O)NC(=O)[C@H](C)NC(=O)[C@H](CCCCNC(=O)COCCOCCNC(=O)COCCOCCNC(=O)CC[C@H](NC(=O)CCCc1ccc(C(C)(C)C)cc1)C(=O)O)NC(=O)[C@H](CCCN)NC(=O)[C@H](CC(=O)O)NC(=O)[C@H](CC(C)C)NC(=O)[C@](C)(CC(C)C)NC(=O)[C@@H](NC(=O)[C@H](CO)NC(=O)[C@H](Cc1ccncc1)NC(=O)[C@H](CC(=O)O)NC(=O)[C@H](CO)NC(=O)[C@@H](NC(=O)[C@](C)(Cc1ccccc1F)NC(=O)[C@@H](NC(=O)CNC(=O)[C@H](CCC(=O)O)NC(=O)C(C)(C)NC(=O)[C@@H](N)Cc1ccc(O)cc1)[C@@H](C)O)[C@@H](C)O)[C@@H](C)CC)[C@@H](C)CC)C(=O)N[C@@H](CCC(=O)O)C(=O)NCC(=O)N[C@@H](CCCCNC(=O)COCCOCCNC(=O)COCCOCCNC(=O)CC[C@H](NC(=O)CCCc1ccc(C(C)(C)C)cc1)C(=O)O)C(=O)N1CCC[C@H]1C(=O)N[C@@H](CO)C(=O)N[C@@H](CO)C(=O)NCC(=O)N[C@@H](C)C(=O)N1CCC[C@H]1C(=O)N1CCC[C@H]1C(=O)N1CCC[C@H]1C(=O)N[C@@H](CO)C(N)=O` [Example 134] the EC50 (hGIPR; [1]) was 0.0238 nM and the EC50 (hGCGR; [2]) was over 9950 nM.

In the case of `CCCCCCCCCCCC(=O)N[C@@H](CCC(=O)NCCOCCOCC(=O)NCCOCCOCC(=O)NCCCC[C@H](NC(=O)[C@H](CCCN)NC(=O)[C@H](CC(=O)O)NC(=O)[C@H](CC(C)C)NC(=O)[C@](C)(CC(C)C)NC(=O)[C@@H](NC(=O)[C@H](CO)NC(=O)[C@H](CCCCNC(=O)COCCOCCNC(=O)COCCOCCNC(=O)CC[C@H](NC(=O)CCCCCCCCCCC)C(=O)O)NC(=O)[C@H](CC(=O)O)NC(=O)[C@H](CO)NC(=O)[C@@H](NC(=O)[C@](C)(Cc1ccccc1F)NC(=O)[C@@H](NC(=O)CNC(=O)[C@H](CCC(=O)O)NC(=O)C(C)(C)NC(=O)[C@@H](N)Cc1ccc(O)cc1)[C@@H](C)O)[C@@H](C)O)[C@@H](C)CC)C(=O)N[C@@H](C)C(=O)N[C@@H](CCC(N)=O)C(=O)NC(C)(C)C(=O)N[C@@H](CCC(=O)O)C(=O)N[C@@H](Cc1ccccc1)C(=O)N[C@H](C(=O)N[C@H](CCC(=O)O)C(=O)N[C@@](C)(Cc1ccc(O)cc1)C(=O)N[C@@H](CC(C)C)C(=O)N[C@H](C(=O)N[C@@H](CCC(=O)O)C(=O)NCC(=O)NCC(=O)N1CCC[C@H]1C(=O)N[C@@H](CO)C(=O)N[C@@H](CO)C(=O)NCC(=O)N[C@@H](C)C(=O)N1CCC[C@H]1C(=O)N1CCC[C@H]1C(=O)N1CCC[C@H]1C(=O)N[C@@H](CO)C(N)=O)[C@@H](C)CC)[C@@H](C)CC)C(=O)O` [Example 136], the Emax (hGIPR; [3]) is reported as 97.4 ± 4.23% and the EC50 (hGCGR; [2]) is reported as over 9950 nM.

With `CC[C@H](C)[C@H](NC(=O)[C@H](CC(C)C)NC(=O)[C@](C)(Cc1ccc(O)cc1)NC(=O)[C@@H](CCC(=O)O)NC(=O)[C@@H](NC(=O)[C@H](Cc1ccccc1)NC(=O)[C@H](CCC(=O)O)NC(=O)C(C)(C)NC(=O)[C@H](CCC(N)=O)NC(=O)[C@H](C)NC(=O)[C@H](CCCCNC(=O)COCCOCCNC(=O)COCCOCCNC(=O)CC[C@H](NC(=O)CCCCCCCCCCCCC(=O)O)C(=O)O)NC(=O)[C@H](CCCN)NC(=O)[C@H](CC(=O)O)NC(=O)[C@H](CC(C)C)NC(=O)[C@](C)(CC(C)C)NC(=O)[C@@H](NC(=O)[C@H](CO)NC(=O)[C@H](Cc1ccco1)NC(=O)[C@H](CC(=O)O)NC(=O)[C@H](CO)NC(=O)[C@@H](NC(=O)[C@](C)(Cc1ccccc1F)NC(=O)[C@@H](NC(=O)CNC(=O)[C@H](CCC(=O)O)NC(=O)C(C)(C)NC(=O)[C@@H](N)Cc1ccc(O)cc1)[C@@H](C)O)[C@@H](C)O)[C@@H](C)CC)[C@@H](C)CC)C(=O)N[C@@H](CCC(=O)O)C(=O)NCC(=O)NCC(=O)N[C@@H](CCCCNC(=O)COCCOCCNC(=O)COCCOCCNC(=O)CC[C@H](NC(=O)CCCCCCCCCCCCC(=O)O)C(=O)O)C(=O)N[C@@H](CO)C(=O)N[C@@H](CO)C(=O)NCC(=O)N[C@@H](C)C(=O)N1CCC[C@H]1C(=O)N1CCC[C@H]1C(=O)N1CCC[C@H]1C(=O)N[C@@H](CO)C(N)=O` [Example 143] the Emax (hGIPR; [3]) was 95%, the EC50 (hGIPR; [1]) was 0.022 nM and the EC50 (hGCGR; [2]) was over 9950 nM.

For `CC[C@H](C)[C@H](NC(=O)[C@H](CC(C)C)NC(=O)[C@](C)(Cc1ccc(O)cc1)NC(=O)[C@@H](CCC(=O)O)NC(=O)[C@@H](NC(=O)[C@H](Cc1ccccc1)NC(=O)[C@H](CCC(=O)O)NC(=O)C(C)(C)NC(=O)[C@H](CCC(N)=O)NC(=O)[C@H](C)NC(=O)[C@H](CCCCNC(=O)COCCOCCNC(=O)COCCOCCNC(=O)CC[C@H](NC(=O)CCCCCCCCCCCCC(=O)O)C(=O)O)NC(=O)[C@H](CCCN)NC(=O)[C@H](CC(=O)O)NC(=O)[C@H](CC(C)C)NC(=O)[C@](C)(CC(C)C)NC(=O)[C@@H](NC(=O)[C@H](CO)NC(=O)[C@H](Cc1ccsc1)NC(=O)[C@H](CC(=O)O)NC(=O)[C@H](CO)NC(=O)[C@@H](NC(=O)[C@](C)(Cc1ccccc1F)NC(=O)[C@@H](NC(=O)CNC(=O)[C@H](CCC(=O)O)NC(=O)C(C)(C)NC(=O)[C@@H](N)Cc1ccc(O)cc1)[C@@H](C)O)[C@@H](C)O)[C@@H](C)CC)[C@@H](C)CC)C(=O)N[C@@H](CCC(=O)O)C(=O)NCC(=O)NCC(=O)N[C@@H](CCCCNC(=O)COCCOCCNC(=O)COCCOCCNC(=O)CC[C@H](NC(=O)CCCCCCCCCCCCC(=O)O)C(=O)O)C(=O)N[C@@H](CO)C(=O)N[C@@H](CO)C(=O)NCC(=O)N[C@@H](C)C(=O)N1CCC[C@H]1C(=O)N1CCC[C@H]1C(=O)N1CCC[C@H]1C(=O)N[C@@H](CO)C(N)=O` [Example 146], the Emax (hGIPR; [3]) was 76.5%, the EC50 (hGIPR; [1]) was 0.0198 nM and the EC50 (hGCGR; [2]) was over 9950 nM.

Compound `CC[C@H](C)[C@H](NC(=O)[C@H](CC(C)C)NC(=O)[C@](C)(Cc1ccc(O)cc1)NC(=O)[C@@H](CCC(=O)O)NC(=O)[C@@H](NC(=O)[C@H](Cc1ccccc1)NC(=O)[C@H](CCC(=O)O)NC(=O)C(C)(C)NC(=O)[C@H](CCC(N)=O)NC(=O)[C@H](C)NC(=O)[C@H](CCCCNC(=O)COCCOCCNC(=O)COCCOCCNC(=O)CC[C@H](NC(=O)CCCCCCCCCCCCC(=O)O)C(=O)O)NC(=O)[C@H](CCCN)NC(=O)[C@H](CC(=O)O)NC(=O)[C@H](CC(C)C)NC(=O)[C@](C)(CC(C)C)NC(=O)[C@@H](NC(=O)[C@H](CO)NC(=O)[C@H](Cc1ccncc1)NC(=O)[C@H](CC(=O)O)NC(=O)[C@H](CO)NC(=O)[C@@H](NC(=O)[C@](C)(Cc1ccccc1F)NC(=O)[C@@H](NC(=O)CNC(=O)[C@H](CCC(=O)O)NC(=O)C(C)(C)NC(=O)[C@@H](N)Cc1ccc(O)cc1)[C@@H](C)O)[C@@H](C)O)[C@@H](C)CC)[C@@H](C)CC)C(=O)N[C@@H](CCC(=O)O)C(=O)NCC(=O)N[C@@H](CCCN)C(=O)N[C@@H](CCCCNC(=O)COCCOCCNC(=O)COCCOCCNC(=O)CC[C@H](NC(=O)CCCCCCCCCCCCC(=O)O)C(=O)O)C(=O)N[C@@H](CO)C(=O)N[C@@H](CO)C(=O)NCC(=O)N[C@@H](C)C(=O)N1CCC[C@H]1C(=O)N1CCC[C@H]1C(=O)N1CCC[C@H]1C(=O)N[C@@H](CO)C(N)=O` [Example 152] has an Emax (hGIPR; [3]) of 97.9 ± 3.25% and an EC50 (hGCGR; [2]) of over 9950 nM.

Compound `CC[C@H](C)[C@H](NC(=O)[C@H](CC(C)C)NC(=O)[C@](C)(Cc1ccc(O)cc1)NC(=O)[C@H](CCCCNC(=O)[C@@H](N)CCCCNC(=O)[C@@H](N)CCCCNC(=O)CC[C@H](NC(=O)CCCCCCCCCCCCC(=O)O)C(=O)O)NC(=O)[C@@H](NC(=O)[C@H](Cc1ccccc1)NC(=O)[C@H](CCC(=O)O)NC(=O)C(C)(C)NC(=O)[C@H](CCC(N)=O)NC(=O)[C@H](C)NC(=O)[C@H](CCCCNC(=O)[C@@H](N)CCCCNC(=O)[C@@H](N)CCCCNC(=O)CC[C@H](NC(=O)CCCCCCCCCCCCC(=O)O)C(=O)O)NC(=O)[C@H](CCCN)NC(=O)[C@H](CC(=O)O)NC(=O)[C@H](CC(C)C)NC(=O)[C@](C)(CC(C)C)NC(=O)[C@@H](NC(=O)[C@H](CO)NC(=O)[C@H](Cc1ccncc1)NC(=O)[C@H](CC(=O)O)NC(=O)[C@H](CO)NC(=O)[C@@H](NC(=O)[C@](C)(Cc1ccccc1F)NC(=O)[C@@H](NC(=O)CNC(=O)[C@H](CCC(=O)O)NC(=O)C(C)(C)NC(=O)[C@@H](N)Cc1ccc(O)cc1)[C@@H](C)O)[C@@H](C)O)[C@@H](C)CC)[C@@H](C)CC)C(=O)N[C@@H](CCC(=O)O)C(=O)NCC(=O)NCC(=O)N1CCC[C@H]1C(=O)N[C@@H](CO)C(=O)N[C@@H](CO)C(=O)NCC(=O)N[C@@H](C)C(=O)N1CCC[C@H]1C(=O)N1CCC[C@H]1C(=O)N1CCC[C@H]1C(=O)N[C@@H](CO)C(N)=O` [Example 162] has an Emax (hGIPR; HEK293, read-out: hGIPR Emax, % ± SEM, percent of maximal response to GIP(1-42)NH2) of 89.7%, an EC50 (hGIPR; hGIPR EC50, nM (SEM, n)) of 0.022 nM and an EC50 (hGCGR; hGCGR EC50, nM (SEM, n)) of over 9950 nM.

From patent US20230265151A1, “GIP/GLP1 CO-AGONIST COMPOUNDS” (priority 2020, published 2023)
